Columns and labels:
[1] = target: Recombinant human c-KIT kinase (Homo sapiens (Human), UniProt P10721); assay: c-KIT kinase chemiluminescence assay (ADP-Glo); assay type: biochemical; details: ATP 50 μM
Summary of the method: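 ADP formed by c-KIT on polyEY over 2 h at RT (after 30 min enzyme preincubation; Tris pH 7.5, MgCl2, BSA, DTT buffer) was detected by ADP-Glo luminescence. IC50 and Hill slope were fitted to control-normalized activity across compound concentrations.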

M-07e cells = assay: M-07e cellular assay (SCF-mediated cell proliferation); assay type: cell-based; details: Homo sapiens, 72 hours, CellTiter Glo
Summary of the method: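 Readout came from CellTiter Glo after 72 h of compound treatment in SCF (EC90)-stimulated, pre-starved M-07e cells at 37 °C.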

Sequence of Recombinant human c-KIT kinase (P10721 26-976): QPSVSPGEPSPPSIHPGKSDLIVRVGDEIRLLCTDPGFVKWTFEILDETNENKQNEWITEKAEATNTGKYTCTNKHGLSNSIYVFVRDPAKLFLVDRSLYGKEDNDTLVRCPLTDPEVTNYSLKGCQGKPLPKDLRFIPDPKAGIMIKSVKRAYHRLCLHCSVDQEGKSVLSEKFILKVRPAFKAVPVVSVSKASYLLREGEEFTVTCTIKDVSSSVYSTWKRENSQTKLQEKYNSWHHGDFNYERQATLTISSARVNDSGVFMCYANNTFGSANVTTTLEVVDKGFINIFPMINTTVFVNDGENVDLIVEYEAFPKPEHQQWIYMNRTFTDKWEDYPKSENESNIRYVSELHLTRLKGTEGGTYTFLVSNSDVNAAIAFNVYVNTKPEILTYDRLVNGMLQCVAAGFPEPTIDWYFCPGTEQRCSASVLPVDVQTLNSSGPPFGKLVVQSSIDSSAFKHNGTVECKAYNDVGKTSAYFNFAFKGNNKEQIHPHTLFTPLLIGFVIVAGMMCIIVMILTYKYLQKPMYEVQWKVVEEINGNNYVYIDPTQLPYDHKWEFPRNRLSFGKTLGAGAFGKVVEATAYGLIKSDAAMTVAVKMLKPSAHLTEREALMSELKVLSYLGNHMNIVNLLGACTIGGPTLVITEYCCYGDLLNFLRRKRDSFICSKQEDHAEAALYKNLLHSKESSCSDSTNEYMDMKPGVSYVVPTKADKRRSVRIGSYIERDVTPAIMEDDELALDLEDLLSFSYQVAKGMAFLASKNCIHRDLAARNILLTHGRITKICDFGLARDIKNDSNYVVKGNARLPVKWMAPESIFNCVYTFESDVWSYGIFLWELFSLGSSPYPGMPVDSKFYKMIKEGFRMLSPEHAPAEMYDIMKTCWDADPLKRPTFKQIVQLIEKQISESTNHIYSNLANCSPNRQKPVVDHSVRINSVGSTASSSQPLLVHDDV

| Structure (SMILES) | IC50 [1] [nM] | EC50 (M-07e cells) [nM] |
| --- | --- | --- |
| Cc1ccc(-c2noc([C@H]3C[C@@H](OC(F)(F)F)C3)n2)cc1NC(=O)c1cnn2ccc(N3CC4(C3)CC(O)(C(F)F)C4)cc12 [Example 281-21] | < 100 | < 100 |
| Cc1ccc(-c2noc([C@H]3C[C@@H](OC(F)F)C3)n2)cc1NC(=O)c1cnn2ccc(N3CC4(C3)CC(O)(C(F)(F)F)C4)cc12 [Example 281-22] | < 100 | < 100 |
| Cc1ccc(-c2noc([C@H]3C[C@@H](OC(F)(F)F)C3)n2)cc1NC(=O)c1cnn2ccc(N3CC4(C3)CC(O)(C(F)(F)F)C4)cc12 [Example 281-23] | < 100 | < 100 |
| Cc1cc(F)c(-c2noc([C@H]3C[C@@H]3F)n2)cc1NC(=O)c1cnn2ccc(N3CC4(C3)CN(S(C)(=O)=O)C4)cc12 [Example 281-24] | < 100 | 100 to 1000 |
| Cc1ccc(-c2noc([C@H]3C[C@@H](C(F)(F)F)C3)n2)cc1NC(=O)c1cnn2ccc(N3CC4(COC4)C3)cc12 [Example 281-25] | < 100 | < 100 |
| O=C(Nc1cc(-c2noc([C@H]3C[C@@H]3F)n2)ccc1Cl)c1cnn2ccc(N3CC4(C3)CC(O)(C(F)F)C4)cc12 [Example 281-26] | 100 to 1000 | < 100 |
| O=C(Nc1cc(-c2noc([C@H]3C[C@@H](C(F)(F)F)C3)n2)ccc1Cl)c1cnn2ccc(N3CC4(C3)CC(O)(C(F)F)C4)cc12 [Example 281-27] | < 100 | < 100 |
| O=C(Nc1cc(-c2noc([C@H]3C[C@@H](OC(F)(F)F)C3)n2)ccc1Cl)c1cnn2ccc(N3CC4(C3)CC(O)(C(F)F)C4)cc12 [Example 281-28] | < 100 | < 100 |
| COC(=O)N1CC(Cc2nc(-c3ccc(C)c(NC(=O)c4cnn5ccc(N6CC7(COC7)C6)cc45)c3)no2)C1 [Example 281-29] | 100 to 1000 | 100 to 1000 |
| O=C(Nc1cc(-c2noc(C3CC(F)(F)C3)n2)ccc1Cl)c1cnn2ccc(N3CC4(C3)CC(O)(C(F)F)C4)cc12 [Example 281-30] | < 100 | < 100 |
| Cc1ccc(-c2noc([C@H]3C[C@](O)(C(F)(F)F)C3)n2)cc1NC(=O)c1cnn2ccc(N3CC4(COC4)C3)cc12 [Example 281-31] | < 100 | < 100 |
| Cc1ccc(-c2noc(C3CN(C(=O)[C@H]4C[C@@H]4F)C3)n2)cc1NC(=O)c1cnn2ccc(N3CC4(COC4)C3)cc12 [Example 281-32] | 100 to 1000 | 100 to 1000 |
| Cc1ccc(-c2noc(C3CN(C(=O)C4(F)CC4)C3)n2)cc1NC(=O)c1cnn2ccc(N3CC4(COC4)C3)cc12 [Example 281-33] | 100 to 1000 | 100 to 1000 |
| Cc1ccc(-c2noc(C3CN(C(=O)[C@H]4C[C@@H]4F)C3)n2)cc1NC(=O)c1cnn2ccc(N3CC4(C3)CC(O)(C(F)F)C4)cc12 [Example 281-34] | 100 to 1000 | 100 to 1000 |
| Cc1ccc(-c2noc(C3CN(C(=O)C4(F)CC4)C3)n2)cc1NC(=O)c1cnn2ccc(N3CC4(C3)CC(O)(C(F)F)C4)cc12 [Example 281-35] | < 100 | < 100 |
| Cc1ncc(-c2noc([C@H]3C[C@@](C)(O)C3)n2)cc1NC(=O)c1cnn2ccc(N3CC4(C3)CC(O)(C(F)F)C4)cc12 [Example 281-36] | < 100 | 100 to 1000 |
| Cc1ncc(-c2noc([C@H]3C[C@](O)(C(F)F)C3)n2)cc1NC(=O)c1cnn2ccc(N3CC4(C3)CC(O)(C(F)F)C4)cc12 [Example 281-37] | 100 to 1000 | 100 to 1000 |
| Cc1ncc(-c2noc([C@H]3C[C@](O)(C(F)(F)F)C3)n2)cc1NC(=O)c1cnn2ccc(N3CC4(C3)CC(O)(C(F)F)C4)cc12 [Example 281-38] | 100 to 1000 | < 100 |
| Cc1ccc(-c2noc(C3CN(CC(F)(F)F)C3)n2)cc1NC(=O)c1cnn2ccc(N3CC4(C3)CC(O)(C(F)F)C4)cc12 [Example 281-39] | < 100 | < 100 |
| Cc1cc(F)c(-c2noc([C@H]3C[C@@H]3F)n2)cc1NC(=O)c1cnn2ccc(N3CC4(COC4)C3)cc12 [Example 281-42] | < 100 | < 100 |
| COC(=O)N1CC(c2nc(-c3ccc(C)c(NC(=O)c4cnn5ccc(N6CC7(COC7)C6)cc45)c3)no2)C1 [Example 281-43] | < 100 | < 100 |
| Cc1ncc(-c2noc([C@H]3C[C@@H](OC(F)(F)F)C3)n2)cc1NC(=O)c1cnn2ccc(N3CC4(C3)CC(O)(C(F)F)C4)cc12 [Example 281-45] | < 100 | < 100 |
| Cc1ccc(-c2noc(C3CN(C(=O)C4CC4)C3)n2)cc1NC(=O)c1cnn2ccc(N3CC4(COC4)C3)cc12 [Example 281-46] | 100 to 1000 | 100 to 1000 |
| Cc1ccc(-c2noc(C3CN(C(=O)C(F)(F)F)C3)n2)cc1NC(=O)c1cnn2ccc(N3CC4(COC4)C3)cc12 [Example 281-47] | 100 to 1000 | > 1000 |
| COC(=O)N1CC(c2nc(-c3cc(NC(=O)c4cnn5ccc(N6CC7(COC7)C6)cc45)c(C)cc3F)no2)C1 [Example 281-48] | < 100 | 100 to 1000 |

| Structure (SMILES) | IC50 [1] [nM] | EC50 (M-07e cells) [nM] |
| --- | --- | --- |
| Cc1ccc(-c2noc(C3CN(C(=O)C4CC(F)(F)C4)C3)n2)cc1NC(=O)c1cnn2ccc(N3CC4(COC4)C3)cc12 [Example 281-49] | > 1000 | > 1000 |
| Cc1ccc(-c2noc(C3CN(C(=O)N(C)C4CC4)C3)n2)cc1NC(=O)c1cnn2ccc(N3CC4(COC4)C3)cc12 [Example 281-50] | 100 to 1000 | 100 to 1000 |
| Cc1ccc(-c2noc(C3CN(C(=O)N(C)C)C3)n2)cc1NC(=O)c1cnn2ccc(N3CC4(COC4)C3)cc12 [Example 281-51] | > 1000 | > 1000 |
| COC(=O)N1CC(c2nc(-c3cc(NC(=O)c4cnn5ccc(N6CC7(C6)CC(O)(C(F)F)C7)cc45)c(C)cc3F)no2)C1 [Example 281-52] | < 100 | < 100 |
| COC(=O)N1CC(c2nc(-c3ccc(C)c(NC(=O)c4cnn5ccc(N6CC7(C6)CC(O)(C(F)F)C7)cc45)c3)no2)C1 [Example 281-53] | < 100 | < 100 |
| Cc1c(F)cc(-c2noc([C@H]3C[C@@H]3F)n2)cc1NC(=O)c1cnn2ccc(N3CC4(COC4)C3)cc12 [Example 281-54] | < 100 | < 100 |
| CC(=O)N1CCC(c2nc(-c3cnc(C)c(NC(=O)c4cnn5ccc(N6CC7(C6)CC(O)(C(F)F)C7)cc45)c3)no2)C1 (centres unmarked) [Example 281-55] | 100 to 1000 | > 1000 |
| Cc1ccc(-c2noc(C3CN(C(=O)NC4CC4)C3)n2)cc1NC(=O)c1cnn2ccc(N3CC4(COC4)C3)cc12 [Example 281-56] | > 1000 | > 1000 |
| Cc1cc(F)c(-c2noc([C@H]3C[C@@H](OC(F)(F)F)C3)n2)cc1NC(=O)c1cnn2ccc(N3CC4(COC4)C3)cc12 [Example 281-57] | < 100 | 100 to 1000 |
| Cc1cc(F)c(-c2noc([C@H]3C[C@@H]3C(F)F)n2)cc1NC(=O)c1cnn2ccc(N3CC4(COC4)C3)cc12 [Example 281-59] | < 100 | 100 to 1000 |
| Cc1ncc(-c2noc(C3C[C@@H]3C(F)F)n2)cc1NC(=O)c1cnn2ccc(N3CC4(COC4)C3)cc12 (some centres unmarked) [Example 281-60] | 100 to 1000 | 100 to 1000 |
| Cc1ccc(-c2noc(C3CN(C(=O)N4CC(F)(F)C4)C3)n2)cc1NC(=O)c1cnn2ccc(N3CC4(COC4)C3)cc12 [Example 281-61] | > 1000 | 100 to 1000 |
| Cc1ncc(-c2noc([C@H]3C[C@@H](C(F)(F)F)C3)n2)cc1NC(=O)c1cnn2ccc(N3CC4(C3)CC(O)(C(F)F)C4)cc12 [Example 281-62] | < 100 | < 100 |
| Cc1ncc(-c2noc([C@H]3C[C@@H]3F)n2)cc1NC(=O)c1cnn2ccc(N3CC4(C3)CC(O)(C(F)F)C4)cc12 [Example 281-63] | 100 to 1000 | < 100 |
| Cc1ncc(-c2noc([C@H]3C[C@@H]3C(F)F)n2)cc1NC(=O)c1cnn2ccc(N3CC4(C3)CC(O)(C(F)F)C4)cc12 [Example 281-64] | < 100 | < 100 |
| Cc1ccc(-c2noc([C@H]3C[C@@H]3F)n2)c(F)c1NC(=O)c1cnn2ccc(N3CC4(COC4)C3)cc12 [Example 281-65] | < 100 | < 100 |
| Cc1ncc(-c2noc([C@H]3C[C@H](C(F)(F)F)C3)n2)cc1NC(=O)c1cnn2ccc(N3CC4(COC4)C3)cc12 [Example 281-66] | 100 to 1000 | < 100 |
| Cc1ncc(-c2noc(C3CC(F)(F)C3)n2)cc1NC(=O)c1cnn2ccc(N3CC4(COC4)C3)cc12 [Example 281-67] | 100 to 1000 | < 100 |
| Cc1ncc(-c2noc([C@H]3C[C@H](C(F)(F)F)C3)n2)cc1NC(=O)c1cnn2ccc(N3CC4(C3)CC(O)(C(F)F)C4)cc12 [Example 281-68] | < 100 | < 100 |
| Cc1ncc(-c2noc(C3CC(F)(F)C3)n2)cc1NC(=O)c1cnn2ccc(N3CC4(C3)CC(O)(C(F)F)C4)cc12 [Example 281-69] | 100 to 1000 | < 100 |
| Cc1nnc(N2CC(c3nc(-c4cnc(C)c(NC(=O)c5cnn6ccc(N7CC8(C7)CC(O)(C(F)F)C8)cc56)c4)no3)C2)o1 [Example 281-70] | > 1000 | > 1000 |
| Cc1nnc(N2CC(c3nc(-c4cnc(C)c(NC(=O)c5cnn6ccc(N7CC8(COC8)C7)cc56)c4)no3)C2)o1 [Example 281-71] | > 1000 | > 1000 |
| CC(=O)N1CCC(c2nc(-c3cnc(C)c(NC(=O)c4cnn5ccc(N6CC7(C6)CC(O)(C(F)F)C7)cc45)c3)no2)CC1 [Example 281-72] | > 1000 | > 1000 |
| CC(=O)N1CC2(CC(c3nc(-c4cnc(C)c(NC(=O)c5cnn6ccc(N7CC8(C7)CC(O)(C(F)F)C8)cc56)c4)no3)C2)C1 [Example 281-73] | > 1000 | > 1000 |

Source: patent publication US20250059174A1, “Pharmaceutical Compounds and Compositions as C-Kit Kinase Inhibitors” (Enanta Pharmaceuticals, Inc., priority 2023, published 2025)
